Source: US20240390487A1, “TLR AGONISTS FOR REDUCING ACTIVATION-INDUCED PD-1 EXPRESSION ON T CELLS AND METHODS OF USE” (WISCONSIN ALUMNI RESEARCH FOUNDATION, priority 2016, published 2024)

Legend:
[1] = tested on: purified OT-1 CD8+ T cells; assay: In vitro co-culture / conditioned medium experiments with APC and OT-1 CD8+ T cells; type: cell-based, mice; settings: purified DC or B cells pre-treated with TLR agonist, SIINFEKL, 24 hours
Procedure: FIGS. 14A-14D. Changes in PD-1 expression following TLR stimulation are mediated by IL-12 secreted from APCs. Panel A: Purified OT-1 T cells (T), B cells (B), or dendritic cells (DC) were activated with SIINFEKL peptide (SEQ ID NO:1, OVA) or with a non-specific peptide (NS) in the presence of either TLR1/2 (TLR1/2) agonist, TLR7 agonist (TLR7), or media alone. After 24 hours, cells were washed and co-cultured with naïve purified OT-1 CD8+ T cells for an additional 24 hours and then assessed for expression of the indicated surface receptors (4-1BB, CD3, PD-1, LAG3, CTLA-4, and TIM3) by flow cytometry. Shown is the MFI for each marker, with samples assessed in triplicate. Panel B: Purified DC were stimulated in the presence of TLR1/2 agonist, TLR7 agonist, or media alone. […] After 24 hours, cells were assessed for expression of the indicated surface receptors (4-1BB, PD-1, LAG3, and CTLA-4) by flow cytometry. Shown is mean and standard error of the MFI for each marker, with samples assessed in triplicate. […] Culture supernatant was then evaluated for the presence of IL12 p70 by ELISA. […] After 24 hours, cells were assessed for expression of the indicated surface receptors (4-1BB, PD-1, LAG3, and CTLA-4) by flow cytometry. Shown is mean and standard error of the MFI for each marker, with samples assessed in triplicate and are representative of two similar experiments. […]

[2] = tested on: ovalbumin-expressing E.G7 cells; assay: Ovalbumin tumor treatment study: peptide immunization with or without TLR agonist; type: in vivo, mice; settings: for anti-tumor effect of peptide immunization with TLR agonist: OVA or FT peptide with TLR agonist versus peptide alone, E.G7 tumors, OT-1 transfer; for LAG-3 expression on CD8+ TIL / PD-1 expression on CD8+ TIL / PD-L1 expression on tumor cells / number of CD8+ tumor-infiltrating lymphocytes: tumors at necropsy; for anti-tumor efficacy of TLR ligand adjuvant alone: with non-specific peptide, no antigen-specific T-cell activation
Procedure: OT-1 T cells were then adoptively transferred and the following day were immunized with SIINFEKL (SEQ ID NO:1, OVA) or FT peptide (SEQ ID NO:2) alone or with TLR1/2 or TLR7 agonist. Other groups were immunized with 100 μg anti-PD-1 antibody delivered the following day. […] This anti-tumor effect was not observed with TLR agonist treatment alone (FIG. 22). […] This was associated with a reduced PD-1 (but not LAG-3) expression on CD8+ TIL (FIG. 17C).
Ovalbumin tumor treatment studies: 10^6 ovalbumin-expressing E.G7 PD-L 1^high cells were injected subcutaneously into 6- to 10-week old female B6 mice. Ten to fifteen days post injection, when tumors were palpable and similarly sized (˜0.2 cm^3), 2×10^6 naïve OT-1 CD8+ T cells were adoptively transferred to each mouse as described above. The following day mice were immunized subcutaneously with 100 μg of an individual peptide (SIINFEKL (SEQ ID NO:1) or variant, LifeTein) in PBS, with or without TLR agonists as described above. In the group receiving PD-1 blocking antibody, 100 μg of antibody (clone G4 (52)) was injected intraperitoneally on the day following vaccination. Tumor volume was measured over time using calipers and calculated in cubic centimeters according to the following formula: (π/6)*(long axis)*(short axis)^2. Tumors obtained at necropsy were digested in media containing 1 mg/mL collagenase and 20 μg/mL DNAse I (Sigma, St. Louis, MO) for 1-2 hours at 37° C. and passed through a 100-μm screen to obtain a single-cell suspension. Tumor cells and tumor-infiltrating lymphocytes (TILs) were stained and analyzed by flow cytometry using the following panel: CD3-FITC (BD 555274), CD4-BUV395 (BD 563790), CD8-BUV805 (BD 564920), LAG-3-BV711 (BD 563179), PD1-PECF594 (BD 562523), PDL1-PECy7 (BD 558017), 41BB-PerCPeF710) (eBioscience 46-1371-82), CD45-BV510 (BD 563891) and Live/Dead Ghost dye 780 (Tonbo, San Diego, CA 13-0865-T100) or corresponding fluorescently labeled IgG controls.

Row | Compound | PD-1 expression on OT-1 T cells activated with TLR-agonist-treated APC [1] | anti-tumor effect of peptide immunization with TLR agonist [2] | LAG-3 expression on CD8+ TIL [2] | PD-1 expression on CD8+ TIL [2] | PD-L1 expression on tumor cells [2] | number of CD8+ tumor-infiltrating lymphocytes [2] | anti-tumor efficacy of TLR ligand adjuvant alone [2]
1 | CCNCc1nc2c(N)nc3ccccc3c2n1CC(C)(C)O [Gardiquimod] | reduced | greater anti-tumor effect | not | reduced | reduced | greater number | do not have significant anti-tumor efficacy
2 | Pam3CSK4 | reduced | greater anti-tumor effect | not | reduced | reduced | greater number | do not have significant anti-tumor efficacy
